# In paper PMC10620772, “Design, synthesis, and biological evaluation of new pyrimidine-5-carbonitrile derivatives as novel anti-cancer, dual EGFR^WT/COX-2 inhibitors with docking studies” (RSC Advances, 2023):
# Key:
# Colo 205 cells = test: Cell cycle analysis by flow cytometry; type: cell-based, human; conditions: treated at IC50; for % G0–G1 / % G2/M / % S: DNA content
# Experimental: Inhibition of the EGFR^WT/COX-2 pathway has been linked to alterations in cell survival and proliferation, as reported.[22,40]
# Cell Culture Unit, VACSERA, Cairo, Egypt, conducted an apoptosis investigation.
# Results reported as DNA% of each cell cycle phase: (S, G1, G2, M). The following reported procedure was followed; (1) applying compounds 4e and 4f on Colo 205 cell line separately, then the Colo 205 was cultured. (2) The cells were collected in PBS diluted by nanopure water as a single cell suspension (by adding trypsine to dissociate cells). (3) Centrifuge cells by 500×g for 5 min, decant the supernatant. (4) Using PBS wash the cells, gently tapping the tube to resuspend cells. (5) In ice bath fix the cells in 66% cooled ethanol, stored in +4 °C 2 h at least (6) put the sample on bench at room temperature, inverted tube gently to resuspend cells. (7) Centrifuge, discard supernatant, wash and resuspend cells once more time. (8) Gently adding PI solution with RNAase (preventing RNA staining and interfering results), (9) Incubate samples in R.T, dark conditions for 20 min (10) transfer samples into ice, dark conditions. (11) Genteelly tapping to resuspend cells which settled during incubation step. (12) Put sample into flow cytometer and run it. Detect the fluorescence of protium iodide in FL2.[41,42] Additional assessment of the pro-apoptotic effect was performed by using Annexin V-FITC and propidium iodide.
# [1] = tested on: FHC (epithelial colon cell line); test: in vitro; conditions: human
# Experimental: (§1) Further perspectives of their mechanisms of action were carried.
# (§2) The preliminary in vitro antitumor investigation of our novel potential anticancer candidates was carried out by NCI, MD, USA (www.dtp.nci.nih.gov). […] Moreover, the safety profile of 4e & 4f at normal cells were evaluated.
# in vitro = conditions: human
# Experimental: as §1, §2
# [2] = tested on: non-small cell lung cancer subpanel; test: NCI60 five-dose, subpanel II; type: cell-based, human; conditions: for GI50: Homo sapiens, read-out: MG-MID (GI50); for GI50 / MG-MID (TGI): subpanel II; for Selectivity index (GI50) / Selectivity index (TGI): full panel MG-MID / subpanel II
# From the text: (2) The molar concentration of the compound responsible for total growth inhibition, also known as total growth inhibition (TGI).
# Regarding subpanel selectivity toward certain cancer type, the method of determining a compound's selectivity index is to divide the full panel MG-MID (μM) value by each single subpanel. Values above six indicate high selectivity against the subpanel; moderate selectivity is denoted by values between three and six. Conversely, compounds are termed nonselective if their selectivity is less than three.[30,37]
Compound,% G0–G1 (Colo 205 cells) [%],% G2/M (Colo 205 cells) [%],% S (Colo 205 cells) [%],Cell cycle comment (Colo 205 cells),Increase of cells at G0–G1 phase vs control (Colo 205 cells) [fold],IC50 FHC [1] [µM],IC50 (in vitro) [µM],selectivity ratio (in vitro),GI50 [2] [µM],Selectivity index (GI50) [2],Selectivity index (TGI) [2],MG-MID (TGI) [2] [µM]
"N#Cc1c(-c2ccc(F)cc2)nc(SCc2ccccc2)nc1N1CCNCC1 [4e, 2-(Benzylthio)-4-(4-fluorophenyl)-6-(piperazin-1-yl) pyrimidine-5-carbonitrile]",61.31,2.87,35.82,Cell growth arrest@ G1,~1.2,46.34,28.2,17,11.2,0.95,0.92,25.67
"N#Cc1c(-c2ccc(F)cc2)nc(SCc2ccc(F)cc2)nc1N1CCNCC1 [4f, 2-((4-Fluorobenzyl)thio)-4-(4-fluorophenyl)-6-(piperazin-1-yl) pyrimidine-5-carbonitrile]",55.01,5.39,39.6,Cell growth arrest@ G1,~1.1,28.25,46.3,25.3,13.7,0.98,0.91,28.83
